# Reference: publication PMC11999280, “Design and screening of novel endosomal escape compounds that enhance functional delivery of oligonucleotides in vitro” (Molecular Therapy. Nucleic Acids, 2025)
# Legend:
# Type in all cases: cell-based
# [1] = tested on: mCherry-GAL9 expressing SHSY5Y cells; experiment: GAL9 recruitment assay, SHSY5Y; conditions: calculated mean from >3 independent exp.
# Method: (§1) Experiments assessing GAL9 localization as an indicator for endosomal remodeling were performed as previously described[15] using 8× stablemCherry-GAL9 expressing cell lines, SHSY5Y, U2OS, 16HBE, NCI-H358, HuH7, HepG2, HEK293, and HeLa. For mCherry-GAL9 recruitment, 3,000 or 6,500 cells/well (depending upon cell line) were seeded into 384-well CellCarrier Ultra plates 24 h prior to treatment (PerkinElmer, catalog no. 6007558). An Echo 655T acoustic dispenser (Labcyte) was used for EEE dose-response preparation by transferring to the cell plate. At assay endpoints, cells were PBS washed, 4% paraformaldehyde fixed at room temperature […] (VWR, catalog no. 9713.1000), and nuclei stained with PBS +1 μg/mL Hoechst 33342 (Thermo Fisher Scientific, catalog no. H21492).
# (§2) Imaging was performed using a spinning-disk confocal microscope (Yokogawa: CV8000) with a ×20w objective (numerical aperture 1.0). Cells and mCherry-GAL9 structure identification and quantification were done using Columbus image-analysis software (PerkinElmer version 2.9.0). Data processing was done using Spotfire (Tibco version 11.4) and Prism (GraphPad version 9.1.0). Image panels were assembled using the FigureJ plugin for FIJI.[43] All mCherry-GAL9 experiments were performed three times (N = 3) with duplicated wells per treatment (n = 2).
# [2] = tested on: mCherry-GAL9 expressing NCI-H358 cells; experiment: GAL9 recruitment assay, NCI-H358; conditions: calculated mean from >3 independent exp.
# Method: as §1, §2
# [3] = tested on: mCherry-GAL9 expressing U2OS cells; experiment: GAL9 recruitment assay, U2OS; conditions: calculated mean from >3 independent exp.
# Method: as §1, §2
# [4] = tested on: mCherry-GAL9 expressing HEK293 cells; experiment: GAL9 recruitment assay, HEK293; conditions: calculated mean from >3 independent exp.
# Method: as §1, §2
# [5] = tested on: mCherry-GAL9 expressing HeLa cells; experiment: GAL9 recruitment assay, HeLa; conditions: calculated mean from >3 independent exp.
# Method: as §1, §2
# [6] = tested on: mCherry-GAL9 expressing HuH7 cells; experiment: GAL9 recruitment assay, HuH7; conditions: calculated mean from >3 independent exp.
# Method: as §1, §2
# [7] = tested on: HeLa_Luc705 cells (pLuc/705 splice-switching reporter); experiment: Functional 705-SSO delivery, luciferase splice-switching assay; conditions: mean from >3 independent experiments
# From the text: Therefore, next, we functionally screened the SSO delivery in the HeLa_Luc705 reporter cell line. HeLa_Luc705 carries a pLuc/705 splice-switching reporter luciferase gene interrupted by a mutated β-globin intron, which creates a preferentially used cryptic 5′ splice site leading to aberrant splicing. Functional SSO delivery masks the cryptic site, redirecting the splicing machinery to the right splicing site, allowing the measurement of luciferase expression (Figure S1).[25]^,[26]^,[27]^,[28] We used SSO transfection with LF2000 as transfection control and the previously published endosomal escape enhancer CMP05 (here, EEE2) as positive control.[15]
# For the assessment of functional SSO therapeutics, a HeLa_Luc705 cell line was grown in DMEM media supplemented with 10% fetal bovine serum (FBS). For most treatments, 10,000 cells/well were seeded in a 96-well plate, 24 h pre-incubated with 1- to 2-μM oligonucleotide, and then treated at the described EEE concentration. At 24 h post-treatment, cells were PBS rinsed and collected for further analysis (treatments and incubation times changed accordingly to the experiment design). Luciferase readout was performed as previously described,[15] using a GloMax 96-well plate microplate luminometer (Promega) immediately after adding 30 μL auto-injected luciferin substrate (Promega Firefly Luciferase Assay System; Thermo Scientific, catalog no. 16174) in a white-walled 96-well plate containing 30 μL 0.1% Triton X-100 (Sigma-Aldrich) cell lysed. Photon exposure time and delay were set to 10 and 2 s after injection. LF2000 was used as the transfection reagent control (Thermo Scientific, catalog no. 11668019). For EEE experiments using 1 or 2 μM SSOs, the control was prepared using lipofection with 100–200 nM SSO; this is to avoid complex induced cell toxicity.
# 705-SSO was purchased from and synthesized by Integrated DNA Technologies. The 705-SSO sequence was previously published, containing 2′-O-methylated bases and only phosphorothioate-saturated backbone linkages were included.[15] The 705-SSO was high-performance liquid chromatography purified, shipped, and stored in IDTE buffer (10 mM Tris, 0.1 mM EDTA).
# [8] = tested on: mCherry-GAL9 expressing HepG2 cells; experiment: GAL9 recruitment assay, HepG2; conditions: calculated mean from >3 independent exp.
# Method: as §1, §2
# [9] = tested on: mCherry-GAL9 expressing 16HBE cells; experiment: GAL9 recruitment assay, 16HBE; conditions: calculated mean from >3 independent exp.
# Method: as §1, §2
# [10] = HeLa-Luc705 + 2 µM SSO, EEE 2.5 - 3 µM
smiles,measurement,setting,value
CCCN1CCC(n2cc(Nc3ncc(F)c(-n4ccc5c(C#N)cccc54)n3)c(OC)n2)CC1 [EEE10],Gal9 response compared to reference,[1]; EEE 0.31 µM,0.015
same,Gal9 response compared to reference,[1]; EEE 0.62 µM,0.024
same,Gal9 response compared to reference,[1]; EEE 1.25 µM,0.123
same,Gal9 response compared to reference,[1]; EEE 2.5 µM,0.877
same,Gal9 response compared to reference,[1]; EEE 5 µM,0.887
same,Gal9 response compared to reference,[1]; EEE 10 µM,0.717
same,Gal9 response compared to reference,[2]; EEE 0.31 µM,0.017
same,Gal9 response compared to reference,[2]; EEE 0.62 µM,0.016
same,Gal9 response compared to reference,[2]; EEE 1.25 µM,0.031
same,Gal9 response compared to reference,[2]; EEE 2.5 µM,0.194
same,Gal9 response compared to reference,[2]; EEE 5 µM,0.633
same,Gal9 response compared to reference,[2]; EEE 10 µM,0.662
same,Gal9 response compared to reference,[3]; EEE 0.31 µM,0.011
same,Gal9 response compared to reference,[3]; EEE 0.62 µM,0.012
same,Gal9 response compared to reference,[3]; EEE 1.25 µM,0.016
same,Gal9 response compared to reference,[3]; EEE 2.5 µM,0.076
same,Gal9 response compared to reference,[3]; EEE 5 µM,0.260
same,Gal9 response compared to reference,[3]; EEE 10 µM,0.512
same,Gal9 response compared to reference,[4]; EEE 0.31 µM,0.023
same,Gal9 response compared to reference,[4]; EEE 0.62 µM,0.026
same,Gal9 response compared to reference,[4]; EEE 1.25 µM,0.051
same,Gal9 response compared to reference,[4]; EEE 2.5 µM,0.379
same,Gal9 response compared to reference,[4]; EEE 5 µM,0.672
same,Gal9 response compared to reference,[4]; EEE 10 µM,0.647
same,Gal9 response compared to reference,[5]; EEE 0.31 µM,0.005
same,Gal9 response compared to reference,[5]; EEE 0.62 µM,0.005
same,Gal9 response compared to reference,[5]; EEE 1.25 µM,0.005
same,Gal9 response compared to reference,[5]; EEE 2.5 µM,0.145
same,Gal9 response compared to reference,[5]; EEE 5 µM,0.463
same,Gal9 response compared to reference,[5]; EEE 10 µM,0.588
same,Gal9 response compared to reference,[6]; EEE 0.31 µM,0.011
same,Gal9 response compared to reference,[6]; EEE 0.62 µM,0.009
same,Gal9 response compared to reference,[6]; EEE 1.25 µM,0.016
same,Gal9 response compared to reference,[6]; EEE 2.5 µM,0.121
same,Gal9 response compared to reference,[6]; EEE 5 µM,0.252
same,Gal9 response compared to reference,[6]; EEE 10 µM,0.414
same,Luciferase expression compared to reference,[7]; [10],0.565
same,Gal9 response compared to reference,[8]; EEE 0.31 µM,0.008
same,Gal9 response compared to reference,[8]; EEE 0.62 µM,0.007
same,Gal9 response compared to reference,[8]; EEE 1.25 µM,0.007
same,Gal9 response compared to reference,[8]; EEE 2.5 µM,0.008
same,Gal9 response compared to reference,[8]; EEE 5 µM,0.026
same,Gal9 response compared to reference,[8]; EEE 10 µM,0.371
same,Gal9 response compared to reference,[9]; EEE 0.31 µM,0.010
same,Gal9 response compared to reference,[9]; EEE 0.62 µM,0.011
same,Gal9 response compared to reference,[9]; EEE 1.25 µM,0.028
same,Gal9 response compared to reference,[9]; EEE 2.5 µM,0.183
same,Gal9 response compared to reference,[9]; EEE 5 µM,0.522
same,Gal9 response compared to reference,[9]; EEE 10 µM,0.746
CCOc1nn(C2CCN(C)CC2)cc1Nc1ncc(F)c(-n2ccc3c(C#N)cccc32)n1 [EEE13],Gal9 response compared to reference,[1]; EEE 0.31 µM,0.014
same,Gal9 response compared to reference,[1]; EEE 0.62 µM,0.015
same,Gal9 response compared to reference,[1]; EEE 1.25 µM,0.012
same,Gal9 response compared to reference,[1]; EEE 2.5 µM,0.013
same,Gal9 response compared to reference,[1]; EEE 5 µM,0.044
same,Gal9 response compared to reference,[1]; EEE 10 µM,0.421
same,Gal9 response compared to reference,[2]; EEE 0.31 µM,0.019
same,Gal9 response compared to reference,[2]; EEE 0.62 µM,0.018
same,Gal9 response compared to reference,[2]; EEE 1.25 µM,0.013
same,Gal9 response compared to reference,[2]; EEE 2.5 µM,0.014
same,Gal9 response compared to reference,[2]; EEE 5 µM,0.015
same,Gal9 response compared to reference,[2]; EEE 10 µM,0.038
same,Gal9 response compared to reference,[3]; EEE 0.31 µM,0.014
same,Gal9 response compared to reference,[3]; EEE 0.62 µM,0.011
same,Gal9 response compared to reference,[3]; EEE 1.25 µM,0.010
same,Gal9 response compared to reference,[3]; EEE 2.5 µM,0.014
same,Gal9 response compared to reference,[3]; EEE 5 µM,0.023
same,Gal9 response compared to reference,[3]; EEE 10 µM,0.072
same,Gal9 response compared to reference,[4]; EEE 0.31 µM,0.018
same,Gal9 response compared to reference,[4]; EEE 0.62 µM,0.024
same,Gal9 response compared to reference,[4]; EEE 1.25 µM,0.021
same,Gal9 response compared to reference,[4]; EEE 2.5 µM,0.020
same,Gal9 response compared to reference,[4]; EEE 5 µM,0.032
same,Gal9 response compared to reference,[4]; EEE 10 µM,0.097
same,Gal9 response compared to reference,[5]; EEE 0.31 µM,0.005
same,Gal9 response compared to reference,[5]; EEE 0.62 µM,0.004
same,Gal9 response compared to reference,[5]; EEE 1.25 µM,0.004
same,Gal9 response compared to reference,[5]; EEE 2.5 µM,0.003
same,Gal9 response compared to reference,[5]; EEE 5 µM,0.007
same,Gal9 response compared to reference,[5]; EEE 10 µM,0.023
same,Gal9 response compared to reference,[6]; EEE 0.31 µM,0.010
same,Gal9 response compared to reference,[6]; EEE 0.62 µM,0.007
same,Gal9 response compared to reference,[6]; EEE 1.25 µM,0.011
same,Gal9 response compared to reference,[6]; EEE 2.5 µM,0.015
same,Gal9 response compared to reference,[6]; EEE 5 µM,0.012
same,Gal9 response compared to reference,[6]; EEE 10 µM,0.046
same,Luciferase expression compared to reference,"[7]; HeLa-Luc705 + 2 µM SSO, EEE 5 µM",1.314
same,Luciferase expression compared to reference,"[7]; HeLa-Luc705 + 2 µM SSO, EEE 1-1.25 µM",0.743
same,Luciferase expression compared to reference,[7]; [10],0.692
same,Gal9 response compared to reference,[8]; EEE 0.31 µM,0.008
same,Gal9 response compared to reference,[8]; EEE 0.62 µM,0.007
same,Gal9 response compared to reference,[8]; EEE 1.25 µM,0.008
same,Gal9 response compared to reference,[8]; EEE 2.5 µM,0.009
same,Gal9 response compared to reference,[8]; EEE 5 µM,0.006
same,Gal9 response compared to reference,[8]; EEE 10 µM,0.007
same,Gal9 response compared to reference,[9]; EEE 0.31 µM,0.009
same,Gal9 response compared to reference,[9]; EEE 0.62 µM,0.011
same,Gal9 response compared to reference,[9]; EEE 1.25 µM,0.010
same,Gal9 response compared to reference,[9]; EEE 2.5 µM,0.013
same,Gal9 response compared to reference,[9]; EEE 5 µM,0.044
same,Gal9 response compared to reference,[9]; EEE 10 µM,0.306
COc1nn(C2CCNCC2C)cc1Nc1ncc(F)c(-n2ccc3c(C#N)cccc32)n1 (stereo not shown) [EEE35],Luciferase expression compared to reference,"[7]; HeLa-Luc705 + 1 µM SSO, EEE 0.5 µM",1.095
same,Luciferase expression compared to reference,"[7]; HeLa-Luc705 + 1 µM SSO, EEE 2 µM",1.804
same,Luciferase expression compared to reference,"[7]; HeLa-Luc705 + 1 µM SSO, EEE 4 µM",4.870
same,Luciferase expression compared to reference,"[7]; HeLa-Luc705 + 1 µM SSO, EEE 5 µM",9.588
same,Luciferase expression compared to reference,"[7]; HeLa-Luc705 + 1 µM SSO, EEE 1-1.25 µM",1.101
same,Luciferase expression compared to reference,"[7]; HeLa-Luc705 + 1 µM SSO, EEE 2.5 - 3 µM",2.812
